According to patent US12472272B2, “Radiolabelled compounds for diagnosis or treatment of prostate-specific membrane antigen- expressing cancer” (PROVINCIAL HEALTH SERVICES AUTHORITY, priority 2019, dated 2025):

Tests used:
[1] = test system: PSMA-expressing LNCAP cancer xenografts; assay: Biodistribution of ^68Ga-labeled PSMA-targeting tracers; format: in vivo, mice
Experimental: (§1) Imaging and biodistribution experiments were performed using NODSCID 1L2RγKO male mice. Mice were anesthetized by inhalation with 2% isoflurane in oxygen, and implanted subcutaneously with 1×10^7 LNCaP cells behind left shoulder. Mice were imaged or used in biodistribution studies when the tumor grew up to reach 5-8 mm in diameter during 5-6 weeks.
(§2) PET imaging experiments were conducted using Siemens Inveon micro PET/CT scanner. Each tumor bearing mouse was injected 6-8 MBq of Ga-68 labeled tracer through the tail vein under anesthesia (2% isoflurane in oxygen). The mice were allowed to recover and roam freely in their cage. After 50 min, the mice were sedated again with 2% isoflurane in oxygen inhalation and positioned in the scanner. A 10-min CT scan was conducted first for localization and attenuation correction after segmentation for reconstructing the PET images. Then, a 10-min static PET imaging was performed to determined uptake in tumor and other organs. The mice were kept warm by a heating pad during acquisition. For imaging studies acquired at 3 h post-injection (p.i.), the mice were placed in the micro PET/CT scanner at 170 min p.i. Then, the CT acquisitions were conducted as described above, a 15-min static PET imaging was performed to determined uptake in tumor and other organs.
For biodistribution studies, the mice were injected with the radiotracer as described above. At predetermined time points (1 or 3 h for ^68Ga studies; 1, 4, 24, 72, or 120 h for ^177Lu studies), the mice was anesthetized with 2% isoflurane inhalation, and euthanized by CO2 inhalation. Blood was withdrawn immediately from the heart, and the organs/tissues of interest were collected. The collected organs/tissues were weighed and counted using a Perkin Elmer (Waltham, MA) Wizard2 2480 gamma counter. The uptake in each organ/tissue was normalized to the injected dose using a standard curve, and expressed as the percentage of the injected dose per gram of tissue (% ID/g).

[2] = test system: LNCaP tumors; assay: PET/CT imaging of ^68Ga-labeled tracers; format: in vivo, mice; conditions: FIG. 3
Experimental: as §1, §2

Tissue (% ID/g): Adrenal glands ([1]; 1 h post-injection): 8.90 ± 2.56 % ID/g | Tissue (% ID/g): Blood ([1]; 1 h post-injection): 1.43 ± 0.30 % ID/g | Tissue (% ID/g): Bone ([1]; 1 h post-injection): 1.29 ± 0.45 % ID/g | Tissue (% ID/g): Brain ([1]; 1 h post-injection): 0.10 ± 0.05 % ID/g | Tissue (% ID/g): Fat ([1]; 1 h post-injection): 2.06 ± 0.59 % ID/g | Tissue (% ID/g): Heart ([1]; 1 h post-injection): 1.82 ± 0.21 % ID/g | Tissue (% ID/g): Intestine ([1]; 1 h post-injection): 1.14 ± 0.18 % ID/g | Tissue (% ID/g): Kidneys ([1]; 1 h post-injection): 170 ± 26.4 % ID/g | Tissue (% ID/g): Lacrimal ([1]; 1 h post-injection): 2.44 ± 1.79 % ID/g | Tissue (% ID/g): Liver ([1]; 1 h post-injection): 1.38 ± 0.25 % ID/g | Tissue (% ID/g): Lungs ([1]; 1 h post-injection): 4.32 ± 0.62 % ID/g | Tissue (% ID/g): Muscle ([1]; 1 h post-injection): 0.75 ± 0.09 % ID/g | Tissue (% ID/g): Pancreas ([1]; 1 h post-injection): 1.47 ± 0.16 % ID/g | Tissue (% ID/g): Salivary ([1]; 1 h post-injection): 4.99 ± 0.88 % ID/g | Tissue (% ID/g): Seminal ([1]; 1 h post-injection): 1.03 ± 0.27 % ID/g | Tissue (% ID/g): Spleen ([1]; 1 h post-injection): 8.95 ± 3.22 % ID/g | Tissue (% ID/g): Stomach ([1]; 1 h post-injection): 0.41 ± 0.11 % ID/g | Tissue (% ID/g): Tail ([1]; 1 h post-injection): 1.36 ± 0.45 % ID/g | Tissue (% ID/g): Testes ([1]; 1 h post-injection): 1.34 ± 0.22 % ID/g | Tissue (% ID/g): Thyroid ([1]; 1 h post-injection): 2.48 ± 0.44 % ID/g | Tissue (% ID/g): Tumor ([1]; 1 h post-injection): 23.1±6.11 % ID/g | Tissue (% ID/g): Urine ([1]; 1 h post-injection): 173 ± 93.01 % ID/g | tumor-to-background contrast ratio Tumor: Blood ([1]; 1 h post-injection): 17.3 ± 7.24 | tumor-to-background contrast ratio Tumor: Muscle ([1]; 1 h post-injection): 31.6 ± 12.1 | tumor-to-background contrast ratio Tumor: kidney ([1]; 1 h post-injection): 0.14 ± 0.04 | Tissue (% ID/g): Adrenal glands ([1]; 3 h post-injection): 4.04 ± 1.20 % ID/g | Tissue (% ID/g): Blood ([1]; 3 h post-injection): 0.83 ± 0.27 % ID/g | Tissue (% ID/g): Bone ([1]; 3 h post-injection): 0.98 ± 0.40 % ID/g | Tissue (% ID/g): Brain ([1]; 3 h post-injection): 0.06 ± 0.02 % ID/g | Tissue (% ID/g): Fat ([1]; 3 h post-injection): 1.06 ± 0.20 % ID/g | Tissue (% ID/g): Heart ([1]; 3 h post-injection): 0.93 ± 0.17 % ID/g | Tissue (% ID/g): Intestine ([1]; 3 h post-injection): 0.67 ± 0.09 % ID/g | Tissue (% ID/g): Kidneys ([1]; 3 h post-injection): 121 ± 37.6 % ID/g | Tissue (% ID/g): Lacrimal ([1]; 3 h post-injection): 2.82 ± 3.84 % ID/g | Tissue (% ID/g): Liver ([1]; 3 h post-injection): 0.82 ± 0.15 % ID/g | Tissue (% ID/g): Lungs ([1]; 3 h post-injection): 2.14 ± 0.39 % ID/g | Tissue (% ID/g): Muscle ([1]; 3 h post-injection): 0.40 ± 0.06 % ID/g | Tissue (% ID/g): Pancreas ([1]; 3 h post-injection): 0.71 ± 0.12 % ID/g | Tissue (% ID/g): Salivary ([1]; 3 h post-injection): 2.11 ± 0.57 % ID/g | Tissue (% ID/g): Seminal ([1]; 3 h post-injection): 4.56 ± 9.00 % ID/g | Tissue (% ID/g): Spleen ([1]; 3 h post-injection): 4.19 ± 1.58 % ID/g | Tissue (% ID/g): Stomach ([1]; 3 h post-injection): 0.26 ± 0.06 % ID/g | Tissue (% ID/g): Tail ([1]; 3 h post-injection): 0.86 ± 0.73 % ID/g | Tissue (% ID/g): Testes ([1]; 3 h post-injection): 0.89 ± 0.12 % ID/g | Tissue (% ID/g): Thyroid ([1]; 3 h post-injection): 1.19 ± 0.23 % ID/g | Tissue (% ID/g): Tumor ([1]; 3 h post-injection): 28.2±9.17 % ID/g | Tissue (% ID/g): Urine ([1]; 3 h post-injection): 171 ± 93.3 % ID/g | tumor-to-background contrast ratio Tumor: Blood ([1]; 3 h post-injection): 36.6 ± 15.4 | tumor-to-background contrast ratio Tumor: Muscle ([1]; 3 h post-injection): 73.8 ± 30.9 | tumor-to-background contrast ratio Tumor: kidney ([1]; 3 h post-injection): 0.26 ± 0.13
SMILES: O=C([O-])CN1CCN(CC(=O)[O-])CCN(CC(=O)NC[C@H]2CC[C@H](C(=O)N[C@@H](Cc3c4ccccc4cc4ccccc34)C(=O)NCCCC[C@H](NC(=O)N[C@@H](CCC(=O)O)C(=O)O)C(=O)O)CC2)CCN(CC(=O)[O-])CC1.[68Ga+3] [^68Ga-HTK03041]
uptake in PET/CT images [2]: higher uptake was observed in LNCap tumor xenografts, kidneys and urinary bladders
